Laboratory results reported in patent US20080280862A1, “Methods, compositions, and kits for the treatment of pain” (priority 2007, published 2008).

System: carrageenan-induced pain model in rats
Test: Carrageenan pain model, mechanical allodynia by Von Frey filaments
Assay type: in vivo, Sprague-Dawley rats
Conditions: for Mean AUC ± SEM: AUC from 20 minutes through 120 minutes following carrageenan injection
Method: The carrageenan model is a fast, reliable model used to assess the ability of analgesics to block inflammatory pain. The analgesic effects of test article combinations on pain generation are assayed using the carrageenan-induced pain model in rats. Adult male Sprague-Dawley rats are administered study drugs intraperitoneally (vehicle, tricyclic compound (TCA), steroid or TCA/Steroid test article combinations) once daily for 2 days (day −2 and day −1) and 30 minutes prior to the carrageenan injection on day 0 (time=0). For the carrageenan injection, animals are lightly anesthetized and 0.1 ml of 2% carrageenan is injected into the plantar surface of the right hind paw. The positive control diclofenac at a dose of 25 mg/kg is administered intraperitoneally immediately before the carrageenan injection. Paw volumes (right and left) are measured using a plathysmometer before drug administration on day −2 and serve as a baseline measurement. The paw volumes are measured again two hours post carrageenan injection. The degree of mechanical allodynia is measured by a blinded observer using Von Frey filaments applied to the plantar surface of the hind paws in an increasing numerical order. Each filament increases the force applied on the paw. The filaments are applied until animal paw withdrawal is achieved. This procedure is carried out before drug administration (day −2), on day −1 and on day 0 at time=0, 20, 40, 60, 80 and 120 minutes post-carrageenan. The force (expressed in grams) required for paw withdrawal after carrageenan injection is subtracted from the force required for paw withdrawal before carrageenan injection. Results are expressed as mean change from baseline across five timepoints post carrageenan injection in Table 4.
For a synergy calculation, experimental data from the carrageenan study are fitted to a median-effect model and used to calculate the parameters' median-effect dose (Dm), slope (m), correlation coefficient (r), combination index (CI) and dose-reduction index (DRI). In addition, the probability of pain inhibition occurring after single-component (nortriptyline) versus the combination drug treatments are calculated from the negative change from baseline data using a Bayesian sensitivity analysis. The likelihood of pain inhibition is characterized for nortriptyline administered alone (1 mg/kg or 3 mg/kg) versus the fixed-dose combination treatments [prednisolone (0.3 mg/kg):nortriptyline (1 mg/kg) or prednisolone (1 mg/kg):nortriptyline (3 mg/kg)] each evaluated at 60 and 80 minutes for analgesic effect.
In another example, the effects of test article combinations on pain inhibition were assayed using the carrageenan model in rodents. Desipramine was tested alone and in combination at 0.3, 1, and 3 mg/kg and prednisolone was tested similarly at 0.3, 1 and 3 mg/kg IP.

C[C@]12C=CC(=O)C=C1CC[C@@H]1[C@@H]2[C@@H](O)C[C@@]2(C)[C@H]1CC[C@]2(O)C(=O)CO [Prednisolone]
Mean AUC ± SEM (0.3 mg/Kg): 2302 ± 634.46
Mean AUC ± SEM (1 mg/Kg): 1583 ± 574.15
Mean change from baseline ± SEM (Experiment One, 3 mg/kg, 20 minutes): 1.10 ± 9.30 g
Mean change from baseline ± SEM (Experiment One, 3 mg/kg, 40 minutes): -52.01 ± 12.52 g
Mean change from baseline ± SEM (Experiment One, 3 mg/kg, 60 minutes): -101.90 ± 15.02 g
Mean change from baseline ± SEM (Experiment One, 3 mg/kg, 80 minutes): -159.70 ± 16.77 g
Mean change from baseline ± SEM (Experiment One, 3 mg/kg, 120 minutes): -212.90 ± 20.82 g
Mean change from baseline ± SEM (Experiment One, 10 mg/kg, 20 minutes): 5.60 ± 6.14 g
Mean change from baseline ± SEM (Experiment One, 10 mg/kg, 40 minutes): -44.30 ± 11.47 g
Mean change from baseline ± SEM (Experiment One, 10 mg/kg, 60 minutes): -97.50 ± 14.33 g
Mean change from baseline ± SEM (Experiment One, 10 mg/kg, 80 minutes): -147.30 ± 16.72 g
Mean change from baseline ± SEM (Experiment One, 10 mg/kg, 120 minutes): -193.70 ± 18.07 g
Mean change from baseline ± SEM (Experiment One, 20 mg/kg, 20 minutes): -29.40 ± 5.10 g
Mean change from baseline ± SEM (Experiment One, 20 mg/kg, 40 minutes): -82.60 ± 5.59 g
Mean change from baseline ± SEM (Experiment One, 20 mg/kg, 60 minutes): -135.80 ± 7.21 g
Mean change from baseline ± SEM (Experiment One, 20 mg/kg, 80 minutes): -189.00 ± 8.41 g
Mean change from baseline ± SEM (Experiment One, 20 mg/kg, 120 minutes): -246.20 ± 12.02 g
Mean change from baseline ± SEM (Experiment One, 35 mg/kg, 20 minutes): -13.60 ± 7.52 g
Mean change from baseline ± SEM (Experiment One, 35 mg/kg, 40 minutes): -73.60 ± 7.52 g
Mean change from baseline ± SEM (Experiment One, 35 mg/kg, 60 minutes): -130.20 ± 7.26 g
Mean change from baseline ± SEM (Experiment One, 35 mg/kg, 80 minutes): -176.60 ± 10.69 g
Mean change from baseline ± SEM (Experiment One, 35 mg/kg, 120 minutes): -216.20 ± 11.39 g
Mean change from baseline ± SEM (Experiment Two, first set of rows, 0.3 mg/kg, 20 minutes): 4.79 ± 7.92 g
Mean change from baseline ± SEM (Experiment Two, first set of rows, 0.3 mg/kg, 40 minutes): 16.77 ± 5.63 g
Mean change from baseline ± SEM (Experiment Two, first set of rows, 0.3 mg/kg, 60 minutes): 19.7 ± 5.68 g
Mean change from baseline ± SEM (Experiment Two, first set of rows, 0.3 mg/kg, 80 minutes): 24.31 ± 6.40 g
Mean change from baseline ± SEM (Experiment Two, first set of rows, 0.3 mg/kg, 120 minutes): 25.57 ± 6.79 g
Mean change from baseline ± SEM (Experiment Two, first set of rows, 1 mg/kg, 20 minutes): 27.60 ± 5.74 g
Mean change from baseline ± SEM (Experiment Two, first set of rows, 1 mg/kg, 40 minutes): 28.64 ± 5.42 g
Mean change from baseline ± SEM (Experiment Two, first set of rows, 1 mg/kg, 60 minutes): 25.54 ± 6.04 g
Mean change from baseline ± SEM (Experiment Two, first set of rows, 1 mg/kg, 80 minutes): 23.77 ± 6.08 g
Mean change from baseline ± SEM (Experiment Two, first set of rows, 1 mg/kg, 120 minutes): 35.14 ± 5.26 g
Mean change from baseline ± SEM (Experiment Two, second set of rows, 0.3 mg/kg, 20 minutes): 0.00 ± 7.42 g
Mean change from baseline ± SEM (Experiment Two, second set of rows, 0.3 mg/kg, 40 minutes): -4.86 ± 4.86 g
Mean change from baseline ± SEM (Experiment Two, second set of rows, 0.3 mg/kg, 60 minutes): 0.00 ± 0.00 g
Mean change from baseline ± SEM (Experiment Two, second set of rows, 0.3 mg/kg, 80 minutes): 4.86 ± 4.86 g
Mean change from baseline ± SEM (Experiment Two, second set of rows, 0.3 mg/kg, 120 minutes): 31.43 ± 5.54 g
Mean change from baseline ± SEM (Experiment Two, second set of rows, 1 mg/kg, 20 minutes): 9.71 ± 6.27 g
Mean change from baseline ± SEM (Experiment Two, second set of rows, 1 mg/kg, 40 minutes): 0.00 ± 10.49 g
Mean change from baseline ± SEM (Experiment Two, second set of rows, 1 mg/kg, 60 minutes): 16.14 ± 7.73 g
Mean change from baseline ± SEM (Experiment Two, second set of rows, 1 mg/kg, 80 minutes): 24.14 ± 7.56 g
Mean change from baseline ± SEM (Experiment Two, second set of rows, 1 mg/kg, 120 minutes): 12.86 ± 13.38 g
decrease of median-effect dose (Dm) after co-administration compared to the monotherapy (median-effect model, prednisolone/nortriptyline 1:3 fixed ratios): 10 fold
